Experimental data from patent publication US20070238700A1, “N-PHENYL-1,1,1-TRIFLUOROMETHANESULFONAMIDE HYDRAZONE DERIVATIVE COMPOUNDS AND THEIR USAGE IN CONTROLLING PARASITES” (priority 2006, published 2007).
Like-named read-outs stand apart in the source and are kept apart here.

Assays:
Ctenocephalides felis [1] = test system: Ctenocephalides felis
Outline: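 Adult cat fleas (3–7 days post-emergence), 15 per flask in ≥4 replicates, exposed to a dried acetone residue at 1.26 μg/cm^2 on a Coatasil-treated glass flask base. Held at 25±1° C, 75±5% humidity; mortality (immobile or unable to right) scored at 8, 24 and/or 48 h.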

Rhipicephalus sanguineus = assay: Rapid screening protocol for topical application on brown dog ticks (% mortality)
Procedure: d) Rapid Screening Protocol for Topical Application on Brown Dog Ticks (Rhipicephalus sanguineus)
The aim of the test was to determine the presence of significant acaricidal activity in sample compounds or formulations when applied topically on brown dog ticks. A tick was defined as dead if it gave no apparent response when touched lightly and observed for 1 minute. To assess the experimental compound for acaricidal activity, a single dose level was chosen based on known results from previous experiments with a commercially available active reference compound. Both permethrin and fipronil were employed as reference compounds. The insect species tested was the Brown Dog Tick (Rhipicephalus sanguineus). Mixed sex adult ticks were used for tests. The strain used was cultured by von Berky Veterinary Services, Woody Point, QLD, AU and supplied as unfed adult ticks (mixed sex). Ticks were maintained in controlled conditions (temp. 18°±2° C., humidity 75±5% RH).
Test compounds (formulations or active ingredients) were stored in a refrigerator (5±1° C.) unless otherwise specified. Temperature was maintained at 25±1° C. and the humidity was ambient. The screening dose chosen was higher than that known to kill 90% of insects (LD90) using the reference compound. In the case of topical application of active compounds on adult ticks, the reference compound was fipronil and the dose chosen was 10 μg of active per tick (=10 μg of fipronil/1 μl of acetone). Ticks were each treated on the abdomen with 1 μL of a single dose level of test sample in acetone; ten ticks were treated with solvent only (acetone) in each test. Tests were replicated 4 times (total of 40 ticks treated). Ticks were held in recovery containers maintained under appropriate rearing conditions for 24 hours. Mortality resulting from the treatments was recorded at 24 hours. Pooled 24 hour mortality data were converted to percentages.

Ctenocephalides felis [2] = assay: Ctenocephalides felis adulticide assay: C. felis dose response (LC50)
Source text: c) Ctenocephalides felis Adulticide Assay: C. felis Dose Response
The purpose of this example was to determine the LC50 when cat fleas were contacted with a glass surface treated with sample compounds or formulations prepared as described above. […] The test species was the cat flea (Ctenocephalides felis). The strain used was obtained from external suppliers as pupae and held in the laboratory under testing conditions until the adults had emerged. Fifteen (15) fleas were used in a minimum of four replicates for each dose level (total of 60 fleas per dose level). The insects were selected to be in the adult life stage, aged between 3 and 7 days post emergence.
The compounds to be tested were dissolved in acetone just prior to testing. Samples of compounds were stored in a refrigerator (5±1° C.) unless otherwise specified. During the mortality testing, the temperature was maintained at 25±1° C. Humidity was maintained at 75±5%. The base (area=159 mm^2) of a 100 mL glass Erlenmeyer (conical) flask provided the treatment surface. Flasks were pretreated with Coatasil™ glass treatment to maximise bio-availability of test compounds by preventing them from binding to the glass surface.
The base of the 100 mL Erlenmeyer flask was treated with 0.5 mL of test sample in acetone and gently swirled. This volume was sufficient to cover the base of the flask. Flasks were left to dry for 24 hours before flea exposure. Adult cat fleas were lightly anaesthetised by cooling and then placed into a sorting chamber, which allowed fleas to revive and jump into the Erlenmeyer flasks. Fifteen (15) adult cat fleas were collected in each flask. The top of the flasks were then covered in Parafilm™ and small holes made to allow gas exchange. A 0.5 mL volume of acetone was applied to the base of an Erlenmeyer flask and the testing proceeded in the same manner described above. Cat fleas in the treatment containers were held under testing conditions for 24 hours. Mortality resulting from the treatments was recorded at 8 and 24 hours.

SMILES | C. felis Mortality (%) 24 h (Ctenocephalides felis [1]) | R. sanguineus Mortality (%) 24 h (Rhipicephalus sanguineus; data from laboratory 1) | R. sanguineus Mortality (%) 24 h (Rhipicephalus sanguineus; data from laboratory 2) | C. felis LC50 (Ctenocephalides felis [2]; data from laboratory 1) | C. felis Mortality (%) 48 h (Ctenocephalides felis [1]) | C. felis Mortality (%) 8 h (Ctenocephalides felis [1]) | C. felis LC50 (Ctenocephalides felis [2])
CC(=NN(C)c1ccccc1)c1cc(Cl)ccc1NS(=O)(=O)C(F)(F)F [Compound 9] | 100^B % | 88% | 98% | 0.86 ppm | – | – | –
CC(=NN(c1ccccc1)C(C)C)c1cc(Cl)ccc1NS(=O)(=O)C(F)(F)F [Compound 28] | 100% | – | 68% | – | 100% | – | –
CC(=NN(c1ccc(Cl)cc1)C(C)C)c1cc(Cl)ccc1NS(=O)(=O)C(F)(F)F [Compound 33] | 86% | – | 88% | – | 100% | – | –
CCN(N=C(C)c1cc(Cl)ccc1NS(=O)(=O)C(F)(F)F)c1ccccc1Cl [Compound 37] | 89% | – | 83% | – | 100% | – | –
CCN(N=C(C)c1cc(Cl)ccc1N(C)S(=O)(=O)C(F)(F)F)c1ccccc1F [Compound 44] | 3% | – | 3% | – | 22% | – | –
CC(=NN(c1ccc(C(F)(F)F)cc1)C(C)C)c1cc(Cl)ccc1NS(=O)(=O)C(F)(F)F [Compound 47] | 100% | – | 58% | – | – | 14% | –
CC(=NN(c1cccc(Cl)c1)C(C)C)c1cc(Cl)ccc1NS(=O)(=O)C(F)(F)F [Compound 50] | 100% | – | 68% | – | – | 61% | –
CCCN(N=C(C)c1cc(Cl)ccc1NS(=O)(=O)C(F)(F)F)c1ccc(Br)cc1 [Compound 53] | 100% | – | 50% | – | – | 71% | –
CC(=NN(c1ccccc1Cl)C(C)C)c1cc(Cl)ccc1NS(=O)(=O)C(F)(F)F [Compound 56] | 99% | – | 45% | – | – | 51% | –
CC(=NN(C)c1ccc(Br)cc1)c1cc(Cl)ccc1NS(=O)(=O)C(F)(F)F [Compound 63] | 100% | – | 100% | – | – | 100% | 2.4 ppm
CC(=NN(C)c1ccc(C(F)(F)F)cc1)c1cc(Cl)ccc1NS(=O)(=O)C(F)(F)F [Compound 65, N-[2-[1-(N′-methyl-(4-trifluoromethyl)phenyl)hydrazono]-ethyl-4-chlorophenyl]-trifluoromethanesulfonamide] | 100% | – | 100% | – | – | 100% | –
CC(=NN(c1cccc(Cl)c1Cl)C(C)C)c1cc(Cl)ccc1NS(=O)(=O)C(F)(F)F [Compound 66] | 100% | – | 48% | – | – | 18% | –
CC(=NN(C)c1ccc(C)cc1)c1cc(Cl)ccc1NS(=O)(=O)C(F)(F)F [Compound 75] | 100% | – | 100% | – | – | 100% | 1.4 ppm
CC(=NN(c1cccc(F)c1)C(C)C)c1cc(Cl)ccc1NS(=O)(=O)C(F)(F)F [Compound 77] | 100% | – | 73% | – | – | 91% | –
CCCN(N=C(C)c1cc(Cl)ccc1NS(=O)(=O)C(F)(F)F)c1ccc(Cl)c(Cl)c1 [Compound 97] | 100% | – | 73% | – | – | 52% | –
CCCN(N=C(C)c1cc(Cl)ccc1NS(=O)(=O)C(F)(F)F)c1cc(Cl)cc(Cl)c1 [Compound 98] | 98% | – | 60% | – | – | 19% | –
CCCN(N=C(C)c1cc(Cl)ccc1NS(=O)(=O)C(F)(F)F)c1c(Cl)cccc1Cl [Compound 103] | 100% | – | 40% | – | – | 56% | –
CCCN(N=C(C)c1cc(Cl)ccc1NS(=O)(=O)C(F)(F)F)c1ccc(F)cc1 [Compound 104] | 100% | – | 75% | – | – | 16% | –
CC(=NN(C)c1ccccc1)c1cc(Cl)ccc1N(C)S(=O)(=O)C(F)(F)F [Compound 109, N-[2-[1-(N′-methyl-N′-phenyl)hydrazono]ethyl-4-chlorophenyl]-N-methyl-trifluoromethanesulfonamide] | 100% | – | 8% | – | – | 73% | –
CCOCN(c1ccc(Cl)cc1C(C)=NN(C)c1ccccc1)S(=O)(=O)C(F)(F)F [Compound 112] | 100% | – | 5% | – | – | 99% | –
CC(=NN(C)c1ccccc1)c1ccc(C(F)(F)F)cc1NS(=O)(=O)C(F)(F)F [Compound 120, N-[2-[1-(N′-methyl-N′-phenyl)hydrazono]-ethyl-5-trifluoromethylphenyl]-trifluoromethanesulfonamide] | 83% | – | 58% | – | – | 28% | –
CC(=NN(C)C)c1ccccc1NS(=O)(=O)C(F)(F)F [Compound 124] | 94% | – | 88% | – | – | 59% | –
CCC(=NN1CCCCCC1)c1cc(Cl)ccc1NS(=O)(=O)C(F)(F)F [Compound 131] | 100% | – | 98% | – | – | 43% | –
C/C(=N\N(CCC#N)C(=O)C(C)C)c1cc(Cl)ccc1NS(=O)(=O)C(F)(F)F [Compound 223] | 100% | – | 100% | – | – | 45% | –
